Measurements taken from paper PMC8231342, “Potency of bisresorcinol from Heliciopsis terminalis on skin aging: in vitro bioactivities and molecular interactions” (PeerJ, 2021).
“And” between values parts separate entries of the source, which are not always exact repeats. Equal entries are not always repeated. Where two headings read alike, the source gives them in different places.

Assays:
Format in all cases: biochemical
[1] = system: Collagenase from Clostridium histolyticum (EC.3.4.24.3); test: Collagenase inhibition assay (fluorogenic peptide substrate)
Method: The recent anti-collagenase assay was modified from that previously described by [Widyowati et al. (2016)]. In brief, 50 mmol L^−1 tricine buffer pH 7.5 supplemented with 400 mmol L^−1 NaCl and 10 mmol L^−1 CaCl2 was used as the buffering diluent. Collagenase from Clostridium histolyticum (EC.3.4.24.3) was dissolved in the buffer to a concentration of 1 mg L^−1. The enzyme substrate, MOCAc-PRO-Leu-Gly-Leu-A2pr (Dnp)-Ala-Arg-NH2, was prior dissolved in DMSO and subsequently diluted in the buffer to a concentration of 1 mmol L^−1. A sample dissolved in DMSO was diluted to different concentrations by using the buffer. A 2-µl sample solution was incubated with 100 µl enzyme solution at 37 °C for 10 min. Then, a 50-µl substrate was added and thoroughly mixed. Fluorescence emission (F) at 405 nm was immediately recorded and continually monitored for 30 min using a wavelength of 320 nm for excitation. Caffeic acid was used as a position control (Fig. 1). Negative control was performed with water. The percent inhibition (%) was calculated from the equation below:
%Inhibition={1–(Fsam,30–Fsam,0)÷(Fcont,30–Fcont,0)}×100.

[2] = molecular target: porcine pancreatic elastase (EC.3.4.21.36) (Sus scrofa, UniProt P00772); test: Elastase inhibition assay (SANA substrate)
Chain of porcine pancreatic elastase (EC.3.4.21.36) (P00772 27-266): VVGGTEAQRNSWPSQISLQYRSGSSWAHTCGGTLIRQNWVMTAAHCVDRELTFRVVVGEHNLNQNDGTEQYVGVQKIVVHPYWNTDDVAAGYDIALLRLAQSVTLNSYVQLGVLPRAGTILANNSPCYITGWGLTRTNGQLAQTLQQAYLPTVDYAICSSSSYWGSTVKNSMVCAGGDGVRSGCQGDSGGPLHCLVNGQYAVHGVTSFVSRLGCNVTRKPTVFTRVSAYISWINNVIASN
Method: The assay according to [Abhijit & Manjushree (2010)] was applied with some modifications. Briefly, the buffer system was 0.2 mM Tris-HCl buffer (pH 8.0). A solution of 1 µg mL^−1 porcine pancreatic elastase (EC.3.4.21.36) was prepared in sterile water. The enzyme substrate, N-Succinyl-Ala-Ala-Ala-p-nitroanilide (SANA), was dissolved in the buffer to a concentration of 80 mmol L^−1. A sample dissolved in DMSO was diluted to various concentrations by using the buffer. A 100-µl sample solution was mixed with 50 µl enzyme solution and incubated for 15 min. After that 50 µl of the enzyme substrate solution was added and thoroughly mixed. The OD410 was measured immediately (0 min) and after incubation overnight (o/n) at 37 °C by using a microplate reader. Ursolic acid was used as a positive control (Fig. 1), and water was used as a negative control. The percentage inhibition (%) was calculated by the following equation:
%Inhibition={1–[(Asam,o/n–Asam,0)÷(Acont,o/n–Acont,0)]}×100.

[3] = molecular target: Mushroom tyrosinase (EC.1.14.18.1) (Agaricus bisporus, UniProt C7FF04); test: Tyrosinase inhibition assay (L-tyrosine substrate); conditions: for inhibition at 10 µg/mL: conc 10 ug/ml; for inhibition at 12.5 µg/mL: conc 12.5 ug/ml; for inhibition at 15 µg/mL: conc 15 ug/ml
Chain of Mushroom tyrosinase (EC.1.14.18.1) (C7FF04 2-392): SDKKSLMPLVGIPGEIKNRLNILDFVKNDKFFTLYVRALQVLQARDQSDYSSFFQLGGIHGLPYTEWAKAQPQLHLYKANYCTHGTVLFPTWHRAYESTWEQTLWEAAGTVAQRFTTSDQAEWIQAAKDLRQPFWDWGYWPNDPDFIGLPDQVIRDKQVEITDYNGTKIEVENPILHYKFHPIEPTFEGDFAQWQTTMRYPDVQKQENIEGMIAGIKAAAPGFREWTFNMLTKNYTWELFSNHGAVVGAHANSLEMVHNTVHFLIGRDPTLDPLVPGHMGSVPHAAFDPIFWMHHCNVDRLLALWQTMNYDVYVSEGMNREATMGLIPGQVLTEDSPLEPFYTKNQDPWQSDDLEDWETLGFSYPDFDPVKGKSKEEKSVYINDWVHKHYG
Method: In brief, the assay was carried out in 0.05 mol L^−1 phosphate buffer pH 6.8. Mushroom tyrosinase (EC.1.14.18.1) was dissolved in the buffer to a concentration of 100 units mL^−1. L-tyrosine, an enzyme substrate, was prepared to a concentration of 0.25 mg mL^−1 in the buffer. […] Into a well of 96-well plates, 10 µl sample and 40 µl L-tyrosine solution were mixed and incubated for 10 min at room temperature. After that 50 µl enzyme solution was inoculated and mixed thoroughly. The reaction was stopped afterward by incubation on ice for 1 min. […] The percentage inhibition (%) was calculated by the equation as follows:
%Inhibition={1–(Asam,10–Asam,0)÷(Acont,10–Acont,0)}×100.

[4] = individual replicates, read-out: % inhibition elastase, replicates 1-3
[5] = read-out: % inhibition elastase, ave
[6] = individual replicates, read-out: % inhibition tyrosinase, replicates 1-3
[7] = read-out: % inhibition tyrosinase, ave
[8] = individual replicates, read-out: % inhibition tyrosinase, N1-N3

Oc1cc(O)cc(CCCCCCCC=CCCCCCCCc2cc(O)cc(O)c2)c1 [Bisresorcinol, (8′Z)-3,5-dihydroxy-1-[16′-(3″,5″-dihydroxyphenyl)-8′-hexadecen-1′-yl]benzene]
% inhibition collagenase, ave ([1]; 56 uM): 0.0%
% inhibition collagenase, ave ([1]; 113 uM): 33.0%
% inhibition collagenase, ave ([1]; 226 uM): 81.31% and 81.3%
ic50 collagenase, ave ([1]; average of N1-N3): 69.5 µg/mL
% inhibition collagenase, ave ([1]; conc 25 ug/ml): 0.00%
% inhibition collagenase, N1-N3 ([1]; conc 25 ug/ml, individual replicates): 0.00% and 0% (2×)
% inhibition collagenase, ave ([1]; conc 50 ug/ml): 32.97%
% inhibition collagenase, N1-N3 ([1]; conc 50 ug/ml, individual replicates): 38.51% and 27.91% and 32.48%
% inhibition collagenase, ave ([1]; conc 100 ug/ml): 81.31%
% inhibition collagenase, N1-N3 ([1]; conc 100 ug/ml, individual replicates): 82.28% and 81.54% and 80.12%
ic50 collagenase, N1-N3 ([1]; individual replicates): 70.18 µg/mL and 67.47 µg/mL and 70.79 µg/mL
IC50 ([1]; individual replicates, read-out: ic50 collagenase, N1-N3): 158 µM and 152 µM and 160 µM
IC50 ([1]; mean ± SEM, triplicate, read-out: IC50 collagenase inhibition): 157 ± 2.3 µM
inhibition at 23 µM ([2]; 23 uM, read-out: % inhibition elastase, ave): 20.8%
inhibition at 34 µM [2, 4]: 46.5%
inhibition at 34 µM [2, 5]: 34.7%
inhibition at 45 µM [2, 4]: 99.6%
inhibition at 45 µM [2, 5]: 99.7%
inhibition at 50 µM ([2]; at 50 µmol L^−1, read-out: maximum inhibition of elastase): 100%
IC50 ([2]; average of N1-N3, read-out: ic50 elastase, ave (converted)): 33.4 µM
% inhibition elastase, N1-N3 ([2]; conc 10 ug/ml, individual replicates): 30.14% and 20.28% and 11.87%
inhibition at 10 µg/mL ([2]; conc 10 ug/ml, read-out: % inhibition elastase, ave): 20.8%
% inhibition elastase, N1-N3 ([2]; conc 15 ug/ml, individual replicates): 30.89% and 26.77%
inhibition at 15 µg/mL ([2]; conc 15 ug/ml, individual replicates, read-out: % inhibition elastase, N1-N3): 46.5%
inhibition at 15 µg/mL ([2]; conc 15 ug/ml, read-out: % inhibition elastase, ave): 34.7%
% inhibition elastase, N1-N3 ([2]; conc 20 ug/ml, individual replicates): 99.58% and 99.76%
inhibition at 20 µg/mL ([2]; conc 20 ug/ml, individual replicates, read-out: % inhibition elastase, N1-N3): 99.6%
inhibition at 20 µg/mL ([2]; conc 20 ug/ml, read-out: % inhibition elastase, ave): 99.7%
IC50 ([2]; individual replicates, read-out: ic50 elastase, N1-N3 (converted)): 35 µM and 31.2 µM and 34 µM and 34.8 µM and 31 µM and 33.8 µM
IC50 ([2]; mean ± SEM, triplicate, read-out: IC50 elastase inhibition): 33.2 ± 1.1 µM
inhibition at 10 µM [3, 6]: 52.4%
inhibition at 10 µM [3, 7]: 44.4%
inhibition at 28 µM [3, 6]: 81.8%
inhibition at 28 µM [3, 7]: 78.5%
inhibition at 30 µM [3, 6]: 81.8%
inhibition at 30 µM [3, 7]: 78.5%
inhibition at 34 µM [3, 6]: 86.3%
inhibition at 34 µM [3, 7]: 84.3%
inhibition at 40 µM [3, 6]: 119%
inhibition at 40 µM [3, 7]: 100%
inhibition at 50 µM ([3]; 50 uM, individual replicates, read-out: % inhibition tyrosinase, replicates 1-3): 138%
inhibition at 50 µM ([3]; 50 uM, read-out: % inhibition tyrosinase, ave): 100%
inhibition at 50 µM ([3]; at 50 µmol L^−1, read-out: tyrosinase inhibition): 100%
inhibition at 10 µg/mL [3, 8]: 52.4%
inhibition at 10 µg/mL [3, 7]: 44.4%
inhibition at 12.5 µg/mL [3, 8]: 81.8%
inhibition at 12.5 µg/mL [3, 7]: 78.5%
inhibition at 15 µg/mL [3, 8]: 86.3%
inhibition at 15 µg/mL [3, 7]: 84.2%
